Measured values as given in US5545669A, “Anti-inflammatory compounds” (priority 1994, dated 1996).

Test system: human neutrophils
Test: Assay (c): Arachidonic acid release assay, A23187-challenged human neutrophils
Type: cell-based
Conditions: calcium ionophore A23187 2 μM
Method: Human neutrophils are obtained in the laboratory using three different methods. One method uses leukophoresis packs from normal humans and neutrophils are isolated using the histopaque-1077 technique. The blood is centrifuged at 300×g for 10 minutes. The cell pellets are resuspended in PBS composed of 137 mM NaCI, 8.8 mM Na2HPO4, 1.5 mM KH2 PO4, 2.7 mM KCI (Dulbecco's Gibco Laboratories, Long Island, N.Y.) and layered over histopaque-1077 (Sigma, St. Louis, Mo.). The pellets are collected after centrifugation (300×g for 30 minutes) and washed once in PBS. The cell pellets are exposed briefly to deionized water to lyse any erythrocytes. The remaining cells are collected by centrifugation, suspended in PBS, counted and identified after cytospinning and staining. The final leukocyte preparation will be of greater than 95% purity and viability.
The second method isolates human neutrophils from fresh heparinized normal blood using the Histopaque-1077 technique. […] The remaining cells are collected by centrifugation, suspended in PBS, counted and identified after cytospinning and staining. […]
The third method isolates human neutrophils from freshly drawn heparinized normal blood using the Percoll technique. […] The neutrophils are suspended in PBS, counted and identified after cytospinning and staining. […]

For O=C(O)c1ccccc1Oc1ccc(C(F)(F)F)cc1NS(=O)(=O)c1cc(C(F)(F)F)cc(C(F)(F)F)c1 [Example 1, 2-[2-[3,5-Bis(trifluoromethyl)phenylsulfonamido]-4-trifluoromethylphenoxy]benzoic acid], which “inhibition of arachidonic acid release” value is on record?
The value was “positive activity”.
